Measured values reported in US4604355A, “Maltogenic amylase enzyme, preparation and use thereof” (Novo Industri A/S, priority 1983, dated 1986).

Molecular target: T1, C599 maltogenic amylase from Bacillus strain C599 NCIB 11837 (Geobacillus stearothermophilus, UniProt P19531)
T1 construct: The enzyme is excreted into the medium; made in house; host or cells: Bacillus strain C599 (NCIB 11837), the natural producer; no recombinant host
T1 sequence (P19531 34-719): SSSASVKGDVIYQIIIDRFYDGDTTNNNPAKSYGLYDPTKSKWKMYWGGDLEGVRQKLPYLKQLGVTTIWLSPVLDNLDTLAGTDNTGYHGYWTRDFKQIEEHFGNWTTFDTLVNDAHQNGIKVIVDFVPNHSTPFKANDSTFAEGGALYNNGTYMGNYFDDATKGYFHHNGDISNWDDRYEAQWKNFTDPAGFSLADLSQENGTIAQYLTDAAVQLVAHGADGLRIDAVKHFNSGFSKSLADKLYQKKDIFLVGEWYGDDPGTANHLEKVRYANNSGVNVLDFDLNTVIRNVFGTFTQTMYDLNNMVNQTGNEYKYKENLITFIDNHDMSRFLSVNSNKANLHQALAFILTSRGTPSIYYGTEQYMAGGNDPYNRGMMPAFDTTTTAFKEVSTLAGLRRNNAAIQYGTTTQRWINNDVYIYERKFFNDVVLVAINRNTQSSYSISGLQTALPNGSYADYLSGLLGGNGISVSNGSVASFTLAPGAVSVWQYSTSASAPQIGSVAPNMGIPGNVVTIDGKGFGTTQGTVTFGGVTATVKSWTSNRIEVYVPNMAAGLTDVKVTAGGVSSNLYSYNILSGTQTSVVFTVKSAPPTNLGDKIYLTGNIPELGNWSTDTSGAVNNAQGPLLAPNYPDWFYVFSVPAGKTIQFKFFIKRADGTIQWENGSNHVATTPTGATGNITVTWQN
Test: Inhibition of C599-amylase (residual activity after incubation with inhibitors)
Type: biochemical
Settings: None = 100
Procedure: One maltogenic amylase unit (U) is defined as the amount of enzyme which under standard conditions (temperature 60° C., pH 5.5, and reaction time 30 minutes) produces reducing sugar corresponding to 1 μmol maltose per minute.
A 0.5% soluble starch (supplied by Merck) in 0.1M acetate buffer or 0.05M phosphate buffer (pH 5) is incubated with 1 ml of the enzyme dissolved in deionized water containing 0.1-0.2 U per ml. The reaction is stopped after 30 minutes by addition of 4 ml 0.5N NaOH.
The content of reducing sugar is then determined by means of the Somogyi method (Somogyi: J.Biol.Chem., 153, p. 375-80 (1944).

Compound	Residual activity after 60 min. at room temperature, % (inhibitor 1 mM) [%]	Residual activity after 60 min. at room temperature, % (inhibitor 1%) [%]
O=C(O)c1cc[c]([Hg][Cl])cc1 [PCMB, parachloromecuribenzoate]	92	
OC[C@H]1O[C@@H]2O[C@H]3[C@H](O)[C@@H](O)[C@@H](O[C@H]4[C@H](O)[C@@H](O)[C@@H](O[C@H]5[C@H](O)[C@@H](O)[C@@H](O[C@H]6[C@H](O)[C@@H](O)[C@@H](O[C@H]7[C@H](O)[C@@H](O)[C@@H](O[C@H]1[C@H](O)[C@H]2O)O[C@@H]7CO)O[C@@H]6CO)O[C@@H]5CO)O[C@@H]4CO)O[C@@H]3CO [Schardinger-α-cyclodextrin]		109
OC[C@H]1O[C@@H]2O[C@H]3[C@H](O)[C@@H](O)[C@@H](O[C@H]4[C@H](O)[C@@H](O)[C@@H](O[C@H]5[C@H](O)[C@@H](O)[C@@H](O[C@H]6[C@H](O)[C@@H](O)[C@@H](O[C@H]7[C@H](O)[C@@H](O)[C@@H](O[C@H]8[C@H](O)[C@@H](O)[C@@H](O[C@H]1[C@H](O)[C@H]2O)O[C@@H]8CO)O[C@@H]7CO)O[C@@H]6CO)O[C@@H]5CO)O[C@@H]4CO)O[C@@H]3CO [Schardinger-β-cyclodextrin]		107
